Reference: article PMC10686834, “Targeting myeloid chemotaxis to reverse prostate cancer therapy resistance” (Nature, 2023)
“Also recorded” adds a separate entry of the source.

Tested on: patients with ARSI-resistant mCRPC
Test: Phase 1 trial of AZD5069 plus enzalutamide: safety and tolerability (DLTs, treatment-emergent adverse events, NCI-CTCAE v.4.0)
Format: in vivo
Source text: The primary trial objective was to evaluate the safety and tolerability of the combination. Key secondary objectives were to evaluate pharmacokinetic–pharmacodynamic parameters and antitumour activity.
Eligible patients were consenting patients aged ≥18 years, who had mCRPC with histologically confirmed prostate adenocarcinoma histology, documented cancer progression at the time of trial entry by Response Evaluation Criteria in Solid Tumors (v.1.1) and/or Prostate Cancer Working Group 2 criteria, and PSA of ≥10 ng ml^−1 at screening.
The dose-escalation phase used a rule-based 3 + 3 design, with an initial three patients enrolled per dose level. If none of the first three patients experienced a DLT, dose escalation proceeded to the next dose level. […] If fewer than two of six patients at any dose level experienced a DLT, dose escalation continued to the next level. If at least two out of up to six patients experienced a DLT, dose escalation stopped and this dose level was defined as the maximum administered dose. Once this maximum administered dose was defined, the maximum tolerated dose (MTD) was confirmed at the dose level below the maximum administered dose. At least six evaluable patients were required to establish the MTD at a specific dose level. […] Intra-patient dose escalation was not permitted. Start of dosing between the first and second patient enrolled to each dose level was staggered by 1 week. Once the MTD was determined in the phase 1 study, the recommended phase 2 dose was determined on the basis of available data, including but not limited to safety and response.
DLTs were defined as described in the study protocol. […] Prophylaxis with growth factor support or antipyretics were not permitted. Investigators determined whether an adverse event was related to the study drugs. If a patient experienced clinically significant and/or unacceptable toxicity, including a DLT, not attributable to the disease or disease-related processes, dosing was interrupted or the dose was reduced and supportive therapy was administered as required.

C[C@@H](Oc1cc(NS(=O)(=O)N2CCC2)nc(SCc2cccc(F)c2F)n1)[C@@H](O)CO [AZD5069]
TEAE Anemia, All G (AZD5069 40 mg BD (n=3)): 1 (33) n (%) | TEAE Anemia, G≥3 (AZD5069 40 mg BD (n=3)): 0 (0) n (%) | TEAE Aphasia, All G (AZD5069 40 mg BD (n=3)): 0 (0) n (%) | TEAE Aphasia, G≥3 (AZD5069 40 mg BD (n=3)): 0 (0) n (%) | TEAE Arthralgia, All G (AZD5069 40 mg BD (n=3)): 0 (0) n (%) | TEAE Arthralgia, G≥3 (AZD5069 40 mg BD (n=3)): 0 (0) n (%) | TEAE Aspartate aminotransferase increased, All G (AZD5069 40 mg BD (n=3)): 0 (0) n (%) | TEAE Aspartate aminotransferase increased, G≥3 (AZD5069 40 mg BD (n=3)): 0 (0) n (%) | TEAE Constipation, All G (AZD5069 40 mg BD (n=3)): 0 (0) n (%) | TEAE Constipation, G≥3 (AZD5069 40 mg BD (n=3)): 0 (0) n (%) | TEAE Death, All G (AZD5069 40 mg BD (n=3)): 0 (0) n (%) | TEAE Death, G≥3 (AZD5069 40 mg BD (n=3)): 0 (0) n (%) | TEAE Decreased appetite, All G (AZD5069 40 mg BD (n=3)): 0 (0) n (%) | TEAE Decreased appetite, G≥3 (AZD5069 40 mg BD (n=3)): 0 (0) n (%) | TEAE Diarrhoea, All G (AZD5069 40 mg BD (n=3)): 0 (0) n (%) | TEAE Diarrhoea, G≥3 (AZD5069 40 mg BD (n=3)): 0 (0) n (%) | TEAE Dry skin, All G (AZD5069 40 mg BD (n=3)): 0 (0) n (%) | TEAE Dry skin, G≥3 (AZD5069 40 mg BD (n=3)): 0 (0) n (%) | TEAE Fatigue, All G (AZD5069 40 mg BD (n=3)): 0 (0) n (%) | TEAE Fatigue, G≥3 (AZD5069 40 mg BD (n=3)): 0 (0) n (%) | TEAE Headache, All G (AZD5069 40 mg BD (n=3)): 0 (0) n (%) | TEAE Headache, G≥3 (AZD5069 40 mg BD (n=3)): 0 (0) n (%) | TEAE Hypophosphataemia, All G (AZD5069 40 mg BD (n=3)): 0 (0) n (%) | TEAE Hypophosphataemia, G≥3 (AZD5069 40 mg BD (n=3)): 0 (0) n (%) | TEAE Nausea, All G (AZD5069 40 mg BD (n=3)): 1 (33) n (%) | TEAE Nausea, G≥3 (AZD5069 40 mg BD (n=3)): 0 (0) n (%) | TEAE Neutrophil decreased, All G (AZD5069 40 mg BD (n=3)): 2 (67) n (%) | TEAE Neutrophil decreased, G≥3 (AZD5069 40 mg BD (n=3)): 0 (0) n (%) | TEAE Oedema genital, All G (AZD5069 40 mg BD (n=3)): 0 (0) n (%) | TEAE Oedema genital, G≥3 (AZD5069 40 mg BD (n=3)): 0 (0) n (%) | TEAE Platelet decreased, All G (AZD5069 40 mg BD (n=3)): 0 (0) n (%) | TEAE Platelet decreased, G≥3 (AZD5069 40 mg BD (n=3)): 0 (0) n (%) | TEAE Pruritus, All G (AZD5069 40 mg BD (n=3)): 1 (33) n (%) | TEAE Pruritus, G≥3 (AZD5069 40 mg BD (n=3)): 0 (0) n (%) | TEAE Skin infection, All G (AZD5069 40 mg BD (n=3)): 0 (0) n (%) | TEAE Skin infection, G≥3 (AZD5069 40 mg BD (n=3)): 0 (0) n (%) | TEAE Vomiting, All G (AZD5069 40 mg BD (n=3)): 1 (33) n (%) | TEAE Vomiting, G≥3 (AZD5069 40 mg BD (n=3)): 0 (0) n (%) | TEAE White blood cell decreased, All G (AZD5069 40 mg BD (n=3)): 0 (0) n (%) | TEAE White blood cell decreased, G≥3 (AZD5069 40 mg BD (n=3)): 0 (0) n (%) | dose-limiting toxicity (DLT) (AZD5069 40 mg BD to 320 mg BD plus enzalutamide 160 mg OD, 21 patients evaluable for DLTs): did not observe any DLT; also recorded: without dose-limiting toxicity | TEAE Anemia, All G (AZD5069 80 mg BD (n=4)): 0 (0) n (%) | TEAE Anemia, G≥3 (AZD5069 80 mg BD (n=4)): 0 (0) n (%) | TEAE Aphasia, All G (AZD5069 80 mg BD (n=4)): 0 (0) n (%) | TEAE Aphasia, G≥3 (AZD5069 80 mg BD (n=4)): 0 (0) n (%) | TEAE Arthralgia, All G (AZD5069 80 mg BD (n=4)): 0 (0) n (%) | TEAE Arthralgia, G≥3 (AZD5069 80 mg BD (n=4)): 0 (0) n (%) | TEAE Aspartate aminotransferase increased, All G (AZD5069 80 mg BD (n=4)): 0 (0) n (%) | TEAE Aspartate aminotransferase increased, G≥3 (AZD5069 80 mg BD (n=4)): 0 (0) n (%) | TEAE Constipation, All G (AZD5069 80 mg BD (n=4)): 0 (0) n (%) | TEAE Constipation, G≥3 (AZD5069 80 mg BD (n=4)): 0 (0) n (%) | TEAE Death, All G (AZD5069 80 mg BD (n=4)): 0 (0) n (%) | TEAE Death, G≥3 (AZD5069 80 mg BD (n=4)): 0 (0) n (%) | TEAE Decreased appetite, All G (AZD5069 80 mg BD (n=4)): 0 (0) n (%) | TEAE Decreased appetite, G≥3 (AZD5069 80 mg BD (n=4)): 0 (0) n (%) | TEAE Diarrhoea, All G (AZD5069 80 mg BD (n=4)): 0 (0) n (%) | TEAE Diarrhoea, G≥3 (AZD5069 80 mg BD (n=4)): 0 (0) n (%) | TEAE Dry skin, All G (AZD5069 80 mg BD (n=4)): 0 (0) n (%) | TEAE Dry skin, G≥3 (AZD5069 80 mg BD (n=4)): 0 (0) n (%) | TEAE Fatigue, All G (AZD5069 80 mg BD (n=4)): 1 (25) n (%) | TEAE Fatigue, G≥3 (AZD5069 80 mg BD (n=4)): 0 (0) n (%) | TEAE Headache, All G (AZD5069 80 mg BD (n=4)): 0 (0) n (%) | TEAE Headache, G≥3 (AZD5069 80 mg BD (n=4)): 0 (0) n (%)
